Test results published in ChEMBL document CHEMBL3580568, “Design and synthesis of close analogs of LCRF-0004, a potent and selective RON receptor tyrosine kinase inhibitor” (Bioorg Med Chem Lett, 2015).

Tests used:
A549 = test: Antiproliferative activity against human A549 cells by MTT assay; assay type: functional, cell-based
[1] = target: T1, Macrophage-stimulating protein receptor (Homo sapiens, UniProt Q04912); test: Inhibition of RON phosphorylation in human HT29 cells; assay type: cell-based, HT-29
T1 sequence (Q04912 25-304 limits assumed): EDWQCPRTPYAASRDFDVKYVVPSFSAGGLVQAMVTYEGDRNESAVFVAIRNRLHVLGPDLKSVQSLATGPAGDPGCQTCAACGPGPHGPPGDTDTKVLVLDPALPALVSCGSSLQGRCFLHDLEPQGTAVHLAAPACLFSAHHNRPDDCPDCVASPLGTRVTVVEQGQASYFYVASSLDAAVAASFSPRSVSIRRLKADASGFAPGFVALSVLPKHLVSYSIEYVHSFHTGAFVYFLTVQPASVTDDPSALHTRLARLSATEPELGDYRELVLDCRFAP
T1 sequence (Q04912 310-1400 limits assumed): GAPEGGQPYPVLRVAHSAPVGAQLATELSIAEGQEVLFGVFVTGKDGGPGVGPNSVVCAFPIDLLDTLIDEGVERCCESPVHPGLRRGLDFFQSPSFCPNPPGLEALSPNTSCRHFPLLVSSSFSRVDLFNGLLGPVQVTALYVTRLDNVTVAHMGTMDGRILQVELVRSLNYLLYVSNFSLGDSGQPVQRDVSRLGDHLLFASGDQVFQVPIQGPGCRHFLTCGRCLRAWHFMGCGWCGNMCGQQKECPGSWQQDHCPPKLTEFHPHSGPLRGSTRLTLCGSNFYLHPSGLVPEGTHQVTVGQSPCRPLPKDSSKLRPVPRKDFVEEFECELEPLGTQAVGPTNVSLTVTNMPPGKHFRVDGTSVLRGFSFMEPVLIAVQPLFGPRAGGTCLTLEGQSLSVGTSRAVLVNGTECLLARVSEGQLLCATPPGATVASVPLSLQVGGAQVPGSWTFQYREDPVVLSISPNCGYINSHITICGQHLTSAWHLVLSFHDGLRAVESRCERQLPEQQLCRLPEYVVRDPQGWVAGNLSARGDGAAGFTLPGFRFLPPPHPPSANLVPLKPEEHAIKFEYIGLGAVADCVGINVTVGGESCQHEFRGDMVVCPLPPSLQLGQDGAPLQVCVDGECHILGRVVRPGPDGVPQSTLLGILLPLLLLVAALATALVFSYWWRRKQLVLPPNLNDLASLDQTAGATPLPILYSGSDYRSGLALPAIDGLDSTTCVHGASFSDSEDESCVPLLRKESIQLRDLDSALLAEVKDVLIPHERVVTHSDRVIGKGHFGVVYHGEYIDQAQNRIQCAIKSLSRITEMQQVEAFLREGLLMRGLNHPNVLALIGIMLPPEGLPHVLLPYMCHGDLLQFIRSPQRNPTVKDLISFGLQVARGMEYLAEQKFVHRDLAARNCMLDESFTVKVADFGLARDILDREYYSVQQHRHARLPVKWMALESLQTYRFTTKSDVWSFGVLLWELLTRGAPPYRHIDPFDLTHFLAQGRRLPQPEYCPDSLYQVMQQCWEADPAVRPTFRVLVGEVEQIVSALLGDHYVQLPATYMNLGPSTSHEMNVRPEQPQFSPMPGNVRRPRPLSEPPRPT

[2] = target: T1, Macrophage-stimulating protein receptor; test: Inhibition of RON phosphorylation in human PC3 cells; assay type: cell-based, PC-3
MDA-MB-231 = test: Antiproliferative activity against human MDA-MB-231 cells by MTT assay; assay type: functional, cell-based
[3] = target: T1, Macrophage-stimulating protein receptor; test: Inhibition of RON (unknown origin) kinase domain by enzymatic assay
[4] = target: Hepatocyte growth factor receptor (Homo sapiens, UniProt P08581); test: Inhibition of phosphorylation of c-Met in human MKN45 cells
Hepatocyte growth factor receptor, sequence (P08581 whole entry): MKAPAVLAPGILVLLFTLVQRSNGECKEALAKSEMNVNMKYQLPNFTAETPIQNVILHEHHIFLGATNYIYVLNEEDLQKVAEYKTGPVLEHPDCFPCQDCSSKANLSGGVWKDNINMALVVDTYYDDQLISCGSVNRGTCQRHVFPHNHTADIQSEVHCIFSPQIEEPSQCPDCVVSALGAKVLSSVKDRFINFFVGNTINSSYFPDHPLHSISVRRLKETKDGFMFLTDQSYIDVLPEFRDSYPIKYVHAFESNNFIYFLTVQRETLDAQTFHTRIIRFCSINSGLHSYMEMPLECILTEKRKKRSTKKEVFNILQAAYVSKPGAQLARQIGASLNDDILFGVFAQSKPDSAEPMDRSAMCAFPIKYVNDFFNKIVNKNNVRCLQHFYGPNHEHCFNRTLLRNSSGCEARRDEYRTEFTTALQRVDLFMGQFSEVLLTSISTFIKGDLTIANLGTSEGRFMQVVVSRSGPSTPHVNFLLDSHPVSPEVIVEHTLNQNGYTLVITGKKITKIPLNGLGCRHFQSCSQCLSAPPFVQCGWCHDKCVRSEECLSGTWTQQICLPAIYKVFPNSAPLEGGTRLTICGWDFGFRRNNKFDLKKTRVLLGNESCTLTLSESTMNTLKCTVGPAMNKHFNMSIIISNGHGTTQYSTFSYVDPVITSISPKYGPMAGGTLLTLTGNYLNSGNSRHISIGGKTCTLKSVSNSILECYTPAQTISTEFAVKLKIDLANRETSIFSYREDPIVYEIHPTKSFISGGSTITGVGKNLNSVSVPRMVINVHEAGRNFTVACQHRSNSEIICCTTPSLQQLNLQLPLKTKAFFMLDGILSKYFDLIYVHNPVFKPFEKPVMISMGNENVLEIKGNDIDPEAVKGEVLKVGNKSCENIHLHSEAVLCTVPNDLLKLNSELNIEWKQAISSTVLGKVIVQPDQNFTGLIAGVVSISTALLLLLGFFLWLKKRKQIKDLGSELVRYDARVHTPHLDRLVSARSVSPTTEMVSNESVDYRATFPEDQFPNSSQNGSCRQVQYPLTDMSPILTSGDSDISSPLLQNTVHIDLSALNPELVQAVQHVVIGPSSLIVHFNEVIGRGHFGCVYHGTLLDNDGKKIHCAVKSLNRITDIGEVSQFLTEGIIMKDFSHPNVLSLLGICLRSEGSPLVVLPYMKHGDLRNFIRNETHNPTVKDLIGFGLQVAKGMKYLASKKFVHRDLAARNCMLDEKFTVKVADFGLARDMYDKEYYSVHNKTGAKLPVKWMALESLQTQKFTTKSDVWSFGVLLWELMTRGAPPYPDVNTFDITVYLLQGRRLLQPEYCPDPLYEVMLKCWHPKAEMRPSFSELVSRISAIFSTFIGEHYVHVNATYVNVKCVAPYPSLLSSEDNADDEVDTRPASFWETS

IC50 (A549)	IC50 [1]	IC50 [2]	IC50 (MDA-MB-231)	IC50 [3]	IC50 [4]	IC50 ([4]; mkn-45)	SMILES
100 nM	30 nM	30 nM	100 nM	12 nM	6870 nM	–	Cn1cnc(-c2cc3nccc(Oc4ccc(NC(=O)c5cnn(-c6ccccc6)c5C(F)(F)F)cc4F)c3s2)c1
–	–	–	–	–	–	Not Active	Cn1cnc(-c2cc3nccc(Oc4ccc(NC(=O)c5ccn(-c6ccccc6)c5C(F)(F)F)cc4F)c3s2)c1
